Measured values from paper PMC4904746 (EXCLI Journal, 2013).
“Also recorded” adds a separate entry of the source.

Target: α-glucosidase from recombinant Saccharomyces cerevisiae (Saccharomyces cerevisiae, UniProt P53341)
Experiment: α-glucosidase inhibitory activity assay
Format: biochemical
Settings: comparison among the fractions and compounds 1-8 isolated from CCF

Sequence of α-glucosidase from recombinant Saccharomyces cerevisiae (P53341 whole entry): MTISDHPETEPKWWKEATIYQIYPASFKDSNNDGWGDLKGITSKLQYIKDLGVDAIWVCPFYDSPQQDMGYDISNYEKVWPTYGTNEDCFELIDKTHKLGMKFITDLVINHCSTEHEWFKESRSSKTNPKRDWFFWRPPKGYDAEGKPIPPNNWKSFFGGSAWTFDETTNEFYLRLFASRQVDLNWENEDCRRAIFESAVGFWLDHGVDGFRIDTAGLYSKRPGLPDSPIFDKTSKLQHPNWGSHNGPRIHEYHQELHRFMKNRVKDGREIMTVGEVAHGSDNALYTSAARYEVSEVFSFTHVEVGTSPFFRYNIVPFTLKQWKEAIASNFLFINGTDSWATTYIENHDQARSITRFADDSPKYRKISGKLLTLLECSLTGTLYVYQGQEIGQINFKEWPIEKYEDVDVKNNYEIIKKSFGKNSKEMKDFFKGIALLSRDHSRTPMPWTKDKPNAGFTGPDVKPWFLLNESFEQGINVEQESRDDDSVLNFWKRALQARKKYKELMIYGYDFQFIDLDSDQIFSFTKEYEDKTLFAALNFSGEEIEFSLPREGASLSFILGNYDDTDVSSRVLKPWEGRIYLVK

Structure (SMILES) | α-glucosidase inhibitory activity (comparison in words)
O=c1c(O)c(-c2ccc(O)c(O)c2)oc2cc(O)cc(O)c12 [Compound 6, quercetin] | higher α-glucosidase inhibitory activity than the flavonoid; also recorded: more significant inhibitory activity against α-glucosidase than other mono-hydroxy flavonoids; also recorded: highest α-glucosidase inhibitory activity
O=c1c(O)c(-c2ccc(O)cc2)oc2cc(O[C@@H]3O[C@H](CO)[C@@H](O)[C@H](O)[C@H]3O)cc(O)c12 [Compound 8, kaempferol-7-O-β-D-glucoside] | higher α-glucosidase inhibitory activity than the flavonoid
O=c1c(O)c(-c2ccc(O)cc2)oc2cc(O)cc(O)c12 [Compound 3, kaempferol] | higher α-glucosidase inhibitory activity than the flavonoid
O=c1c(O[C@@H]2O[C@H](CO)[C@H](O)[C@H](O)[C@H]2O)c(-c2ccc(O)c(O)c2)oc2cc(O)cc(O)c12 [Compound 4, hyperin] | more significant inhibitory activity against α-glucosidase than other mono-hydroxy flavonoids
